This note sets out measurements from US6174909A, “4-aminotetrahydrobenzisoxazole or -isothiazole compounds” (H. Lundbeck A/S, priority 1995, dated 2001).

Counter-ions that a name gives are not always drawn. Some results are limits rather than exact numbers.

As a reminder, the ED50 is the dose at which the effect has come halfway, by size or by number of responders. For orientation: IC50 means the concentration needed to halve the response being measured. High values mean a need for much substance, low ones inhibition by little substance.

Assay [1] relates to isoniazide induced convulsions in mice. Description: Isoniazid antagonism (antagonism of isoniazide induced convulsions in mice). Format: in vivo, mice (male NMRI/BOM). Conditions: Mus musculus, sc, 30 min before 300 mg isoniazide s.c., protected = no convulsions within 60 min, log probit analysis. Here is the method:
The test is a test for antagonism of isoniazide induced convulsions in mice.
The test substance is given s.c. to mice (male NMRI/BOM, body weight 20-25 g) and 30 min later 300 mg isoniazide is given s.c. Five mice are used per dose and a control group only receiving isoniazide is included. This dose of isoniazide induces intermittent tonic seizures.
The animals are placed individually in Macrolon type II cages and the time when convulsions first occur is recorded. The experiment is stopped after 90 min. The animals that have not had convulsions within 60 min. are recorded as + (protected). The results, i.e. the number of protected mice pr number of tested mice are stated in fractions as follows: 0/5, 1/5 . . . , 5/5.

Assay [2] relates to GABA uptake in synaptosomes. Description: GABA uptake inhibition in synaptosomes (overall, i.e. neuronal and glial). Format: biochemical. Conditions: values marked * = Preliminary Data. Here is the method:
The inhibition of GABA Uptake was performed by the method described by Falch et. al, Drug Dev. Res., 1990,21, 169-188. By this method the overall, i.e. neuronal and glial, inhibition of GABA uptake is determined.

On to `CNC(=O)n1oc2c(c1=O)C(NC)CCC2` (racemic) [Compound 15b], for which the ED50 in assay [1] was 72 µmol/kg. In assay [2], this compound returned an IC50 of 80 µM.

In the case of `CNC1CCCc2on(C(=O)NCc3ccccc3)c(=O)c21` (racemic) [Compound 15c], the ED50 in assay [1] was > 120 µmol/kg. In addition, the IC50 in assay [2] turned out to be 84 µM.

Turning to `CN(CCOC(c1ccc(F)cc1)c1ccc(F)cc1)C1CCCc2onc(O)c21` (racemic) [Compound 16a, (R,S)-4-[N-[bis(4-fluorophenyl)methyl-2-oxyethyl]-N-methylamino]-3-hydroxy-4,5,6,7-tetrahydro-1,2-benzisoxazole, sodium salt], the ED50 in assay [1] amounted to 55 µmol/kg. This compound also had an IC50 in assay [2] of 4.5 µM.

Regarding `CN(CCOC(c1ccc(Cl)cc1)c1ccc(Cl)cc1)C1CCCc2onc(O)c21` (racemic) [Compound 16b, (R,S)-4-[N -[bis (4-chlorophenyl)methyl-2-oxyethyl]-N -methylamino]-3-hydroxy-4,5,6,7-tetrahydro-1,2-benzisoxazole, sodium salt], the 50% effect level in assay [1] (ED50) was put at a dose of 81 µmol/kg. The same compound yielded an IC50 in assay [2] of 4.9 µM.

With `CN(CCOC(c1ccccc1)c1ccccc1)C1CCCc2onc(O)c21` (racemic) [Compound 16c, (R,S)-4-[N-(diphenylmethyl-2-oxyethyl)-N-methylamino]-3-hydroxy-4,5,6,7-tetrahydro-1,2-benzisoxazole, hydrochloride], the ED50 in assay [1] worked out at 160 µmol/kg. Moreover, the IC50 in assay [2] was found to be 0.36 µM.

On to `Cc1ccsc1C(=CCCN(C)C1CCCc2onc(O)c21)c1sccc1C` (racemic) [Compound 16d, (R,S)-4-[N-(4,4-bis[3-methylthien-2-yl]-3-butenyl)-N-methylamino]-3-hydroxy-4,5,6,7-tetrahydro-1,2-benzisoxazole hydrochloride], for which, in assay [1], the ED50 is 63 µmol/kg. This compound also yielded an IC50 in assay [2] of 0.31 µM.

In the case of `CN(CCC=C(c1ccccc1)c1ccccc1)C1CCCc2onc(O)c21` (racemic) [Compound 20a, (R,S)-3-Hydroxy-4-[N-(4,4-diphenyl-3-butenyl)methylamino]4,5,6,7-tetrahydro-1,2-benzisoxazole, hydrochloride], the ED50 in assay [1] is 97 µmol/kg. Moreover, in assay [2], it took 0.37 µM to reach half-maximal inhibition (IC50).

The compound `CNC1CCCc2onc(OCOC(=O)c3c(C)cc(C)cc3C)c21` (racemic) [Compound 31b, (R,S)-4-Methylamino-3-(2,4,6-trimethylbenzoyloxymethyloxy)-4,5,6,7-tetrahydro-1,2-benzisoxazole, hemioxalate] gave an ED50 in assay [1] of 55 µmol/kg. In assay [2], this compound yielded an IC50 of 300 µM.

`Oc1noc2c1C(NCc1ccccc1)CCC2` (racemic) [Compound 41a, (R,S)-3-Hydroxy-4-benzylamino-4,5,6,7-tetrahydro-1,2-benzisoxazole hydrobromide]: the ED50 in assay [1] came out at 77 µmol/kg. The same compound registered an IC50 in assay [2] of 140 µM.

Turning to `Oc1noc2c1C(NCC(c1ccccc1)c1ccccc1)CCC2` (racemic) [Compound 41b, (R,S)-3-Hydroxy-4-(2,2-diphenylethylamino)-4,5,6,7-tetrahydro-1,2-benzisoxazole hydrobromide], in assay [1], the ED50 was > 190 µmol/kg. Besides, the midpoint of inhibition in assay [2], the IC50, lay at 22 µM.

Regarding `CNC1CCCc2onc(O)c21` (single isomer, unassigned; (+)) [Compound 6c, (+)-3-hydroxy-4-methylamino-4,5,6,7-tetrahydro-1,2-benzisoxazole, hydrobromide], the ED50 in assay [1] is > 320 µmol/kg. The compound also yielded an IC50 in assay [2] (hydrobromide) of 42 µM.
